In assay [1] the target is T1, Siglec-2 (CD22) (Homo sapiens, UniProt P20273).
T1 sequence (P20273 20-847): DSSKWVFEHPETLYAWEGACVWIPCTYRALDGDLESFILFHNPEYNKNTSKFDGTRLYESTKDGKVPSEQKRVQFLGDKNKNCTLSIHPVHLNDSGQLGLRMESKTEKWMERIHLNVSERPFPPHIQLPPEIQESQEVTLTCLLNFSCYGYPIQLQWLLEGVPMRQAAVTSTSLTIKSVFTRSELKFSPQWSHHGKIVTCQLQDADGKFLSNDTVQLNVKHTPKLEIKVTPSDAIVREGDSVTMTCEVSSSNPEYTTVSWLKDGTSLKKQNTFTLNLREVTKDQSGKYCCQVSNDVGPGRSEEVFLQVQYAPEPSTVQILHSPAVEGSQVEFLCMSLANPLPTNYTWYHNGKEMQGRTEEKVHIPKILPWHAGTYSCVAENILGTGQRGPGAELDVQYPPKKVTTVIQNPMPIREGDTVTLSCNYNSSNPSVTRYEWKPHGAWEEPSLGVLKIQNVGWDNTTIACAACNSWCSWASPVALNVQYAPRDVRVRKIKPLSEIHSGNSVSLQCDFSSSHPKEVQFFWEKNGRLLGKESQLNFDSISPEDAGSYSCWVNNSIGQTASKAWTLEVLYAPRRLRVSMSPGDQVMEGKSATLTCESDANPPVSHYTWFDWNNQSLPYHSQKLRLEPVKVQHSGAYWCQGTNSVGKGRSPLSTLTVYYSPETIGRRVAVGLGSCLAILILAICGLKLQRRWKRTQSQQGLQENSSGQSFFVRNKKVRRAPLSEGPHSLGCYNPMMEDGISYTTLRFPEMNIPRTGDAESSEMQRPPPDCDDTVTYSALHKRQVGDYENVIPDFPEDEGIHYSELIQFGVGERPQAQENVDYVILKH
Nature of the assay: known affinity assay (Bock et al., Methods Mol. Biol. 2006), 'Literature assay'. Conditions: relative Inhibitory Potency; BPC Neu5Ac = 1. The format is binding. On the procedure: The affinity of a number of dimers was measured using a known assay (Bock et al., Methods Mol. Biol. 2006, 347, 359-375). […] Exact values were undeterminable, however, owing to fluctuating values. In order to be able to determine the affinity of the new derivatives reliably, a new assay was drawn up. For this assay, compound 155 was prepared.

Assay [2] deals with T1, Siglec-2 (CD22). The assay is described as follows: new affinity assay: displacement of biotinylated compound 155 from sialidase-treated Daudi cells, FACS with streptavidin-PE. The conditions noted are these: for rIP: Table II, rIP values set relative to compound 38, Daudi cells, displacement of compound 155; for rIP (New assay): relative Inhibitory Potency from IC50, human B-cell lymphoma line Daudi, compound 38 = 1. The arrangement: endogenous in cells; host or cells: Daudi (human B-cell lymphoma line). The format is binding. The method, boiled down: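 Sialidase-treated Daudi cells preincubated on ice 15 min with inhibitor (1 mM to 1×10^−7 mM), then 20 min with biotinylated probe (4 μM as added); bound probe detected by streptavidin-PE flow cytometry. IC50 converted to relative inhibitory potency (rIP) against a reference substance.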

As to `CO[C@]1(C(=O)[O-])C[C@H](O)[C@@H](NC(C)=O)[C@H]([C@H](O)[C@H](O)CNC(=O)c2ccc(-c3ccccc3)cc2)O1.[Na+]` [BPC Neu 5Ac, reference compound], the “rIP (Literature assay)” value in assay [1] is reported as 1.

Turning to `CC(=O)N[C@H]1[C@H]([C@H](O)[C@H](O)CNC(=O)c2ccc(-c3ccccc3)cc2)O[C@@](OCCCSCCNC(=O)c2ccc(C(=O)NCCSCCCO[C@]3(C(=O)[O-])C[C@H](O)[C@@H](NC(C)=O)[C@H]([C@H](O)[C@H](O)CNC(=O)c4ccc(-c5ccccc5)cc4)O3)cc2)(C(=O)[O-])C[C@@H]1O.[Na+].[Na+]` [Compound 21], the “rIP (Literature assay)” value in assay [1] is given as over 2000. Further, in assay [2], the rIP is given as 2979 and the “rIP (New assay)” value stood at 2979. Take `CC(=O)N[C@H]1[C@H]([C@H](O)[C@H](O)CO)O[C@@](OCCCSCCNC(=O)c2ccc(C(=O)NCCSCCCO[C@]3(C(=O)[O-])C[C@H](O)[C@@H](NC(C)=O)[C@H]([C@H](O)[C@H](O)CO)O3)cc2)(C(=O)[O-])C[C@@H]1O.[Na+].[Na+]` [Compound 38]: the “rIP (Literature assay)” value in assay [1] was ~1-3. In addition, in assay [2], the rIP turned out to be 1 and the “rIP (New assay)” value was 1. `CC(=O)N[C@H]1[C@H]([C@H](O)[C@H](O)CNC(=O)Cc2ccc(-c3ccccc3)cc2)O[C@@](OCCCSCCNC(=O)c2ccc(-c3ccc(C(=O)NCCSCCCO[C@]4(C(=O)[O-])C[C@H](O)[C@@H](NC(C)=O)[C@H]([C@H](O)[C@H](O)CNC(=O)Cc5ccc(-c6ccccc6)cc5)O4)cc3)cc2)(C(=O)[O-])C[C@@H]1O.[Na+].[Na+]` [Compound 128] displayed a rIP in assay [2] of 19. As to `CC(=O)N[C@H]1[C@H]([C@H](O)[C@H](O)CNC(=O)C#Cc2ccccc2)O[C@@](OCCCSCCNC(=O)c2ccc(-c3ccc(C(=O)NCCSCCCO[C@]4(C(=O)[O-])C[C@H](O)[C@@H](NC(C)=O)[C@H]([C@H](O)[C@H](O)CNC(=O)C#Cc5ccccc5)O4)cc3)cc2)(C(=O)[O-])C[C@@H]1O.[Na+].[Na+]` [Compound 129], the rIP in assay [2] was 21.

With `CC(=O)N[C@H]1[C@H]([C@H](O)[C@H](O)CNC(=O)c2ccc(-c3c4ccc(=O)cc-4oc4cc(O)ccc34)c(C(=O)[O-])c2)O[C@@](OCCCSCCNC(=O)c2ccc(-c3ccc(C(=O)NCCSCCCO[C@]4(C(=O)[O-])C[C@H](O)[C@@H](NC(C)=O)[C@H]([C@H](O)[C@H](O)CNC(=O)c5ccc(-c6c7ccc(=O)cc-7oc7cc(O)ccc67)c(C(=O)[O-])c5)O4)cc3)cc2)(C(=O)[O-])C[C@@H]1O.[Na+].[Na+].[Na+].[Na+]` [Compound 131], the rIP in assay [2] is 4. Still for that read-out and setting: the figure for `CC(=O)N[C@H]1[C@H]([C@H](O)[C@H](O)CNC(=O)c2ccc(-c3ccccc3)cc2)O[C@@](OCCC[S+]([O-])CCNC(=O)c2ccc(C(=O)NCC[S+]([O-])CCCO[C@]3(C(=O)[O-])C[C@H](O)[C@@H](NC(C)=O)[C@H]([C@H](O)[C@H](O)CNC(=O)c4ccc(-c5ccccc5)cc4)O3)cc2)(C(=O)[O-])C[C@@H]1O.[Na+].[Na+]` (some centres unmarked) [Compound 132] is 212; for `CC(=O)N[C@H]1[C@H]([C@H](O)[C@H](O)CNc2c(NCc3ccccc3)c(=O)c2=O)O[C@@](OCCCSCCNC(=O)c2ccc(C(=O)NCCSCCCO[C@]3(C(=O)[O-])C[C@H](O)[C@@H](NC(C)=O)[C@H]([C@H](O)[C@H](O)CNc4c(NCc5ccccc5)c(=O)c4=O)O3)cc2)(C(=O)[O-])C[C@@H]1O.[Na+].[Na+]` [Compound 134] it is 70; for `CC(=O)N[C@H]1[C@H]([C@H](O)[C@H](O)CNC(=O)c2ccc(-c3ccccc3)cc2)O[C@@](OCCCSCCNC(=O)c2ccc(C(=O)NCCSCCCO[C@]3(C(=O)[O-])C[C@H](O)[C@@H](NC(C)=O)[C@H]([C@H](O)[C@H](O)CNC(=O)c4ccc(-c5ccccc5)cc4)O3)cc2)(C(=O)[O-])C[C@@H]1OC(=O)c1ccccc1.[Na+].[Na+]` [Compound 147] it is 32069. On the same count and under the same terms, the value for `CC(=O)N[C@H]1[C@H]([C@H](O)[C@H](O)CNC(=O)c2ccc(-c3ccccc3)cc2)O[C@@](OCCCSCC(NC(=O)c2ccc(C(=O)NC(CSCCCO[C@]3(C(=O)[O-])C[C@H](O)[C@@H](NC(C)=O)[C@H]([C@H](O)[C@H](O)CNC(=O)c4ccc(-c5ccccc5)cc4)O3)C(=O)[O-])cc2)C(=O)[O-])(C(=O)[O-])C[C@@H]1O.[Na+].[Na+].[Na+].[Na+]` (some centres unmarked) [Compound 149] was 378.

The values are drawn from patent US9260467B2, “Sialic acid dimers” (priority 2011, dated 2016).
